{"source": "patent US12723261B2", "about": "“Process for producing a plurality of Neddylation site modified AAV2 vectors” (INDIAN INSTITUTE OF […], priority 2018, dated 2026)", "tested_on": "HeLa cells", "experiment": "In vitro drug assay: scAAV2-EGFP transduction after pre-treatment with Neddylation inhibitor", "format": "cell-based", "details": "versus control cells", "protocol": "Approximately 3×10^4 HeLa cells were seeded in 24 well plate and incubated for 12 hours in Iscove's-modified Dulbecco's medium (IMDM) with 10% fetal bovine serum in humidified conditions and 5% CO2. Cells were either mock treated or treated with a Neddylation inhibitor, MLN4924 (Calbiochem, Merck, Kenilworth, USA) at a concentration of 1 μM and incubated at 37° C. for 3 hours. After incubation, cells were infected with scAAV2-EGFP vectors at a multiplicity of infection (MOI) of 5000 for 3 hours in IMDM at 37° C. Forty-eight hours later, the transgene (GFP) expression was quantified by flow cytometry (BDaccuri, BD Biosciences, Franklin Lakes, USA).\nTo determine the role of cellular Neddylation during AAV2 infection, a small molecular inhibitor of Neddylation being used herein, MLN4924. The MLN4924 prevents the formation of the NEDD8 and Neddylation activating enzyme (NAE1) protein complex. The HeLa cells were pre-treated for three hours, after which the HeLa cells were infected with scAAV2-EGFP. […] Further studies such as specific targeting of Neddylation pathway genes by RNA interference are warranted to understand the mechanism involved in this process. […] Forty-eight hours later, the transgene (GFP) expression was quantified by flow cytometry. […]"}
{"smiles": "NS(=O)(=O)OC[C@@H]1C[C@@H](n2ccc3c(N[C@H]4CCc5ccccc54)ncnc32)C[C@@H]1O", "note": "[MLN4924]", "values": [{"measurement": "improvement of AAV transduction by Neddylation inhibition", "result": 50, "unit": "%"}]}
